Experimental findings from US7091038B2, “Ecdysone receptor-based inducible gene expression system” (RheoGene, Inc., priority 2000, dated 2006) are described below.

One test has as its target DmVgRXR + MmRXR (Drosophila melanogaster, UniProt P34021, E282G/G283S/G286V). Nature of the test: Transactivation of reporter gene through switch 1.8 in CV1 cells. Format: cell-based, Drosophila melanogaster; Mus musculus. The conditions noted are these: switch 1.8, pIND(SP1)LacZ. The arrangement: host or cells: CHO, NIH3T3, 293 or CV1 cells. From the text: This system was purchased from Invitrogen Corp., Carlsbad, California. It comprises a Drosophila melanogaster EcR (“DmEcR”) with a modified DNABD fused to VP16AD and placed under the control of a CMV promoter (SEQ ID NO: 68). Full length MmRXR (SEQ ID NO: 62) was placed under the control of the RSV promoter (SEQ ID NO: 69). The reporter, pIND(SP1)LacZ, contains five copies of a modified ecdysone response element (“EcRE”, E/GRE), three copies of an SPI enhancer, and a minimal heat shock promoter, all of which were placed upstream to the LacZ reporter gene.
(§1) The cells were harvested and reporter activity was assayed.
(§2) The cells were plated when they reached 50% confluency.
(§3) The same procedures described for NIH3T3 cells were followed for CV1 cells
(§4) Cells were harvested 24–48 hr after adding ligands. […] Twenty μl of lysate was assayed.
In general terms: Reporter assays use an easily measured gene product as a stand-in for the process of interest.

For a further test, the target named is T1, GAL4RXR + VP16DmEcR (Drosophila melanogaster, UniProt P34021).
T1 sequence (P34021 254-878): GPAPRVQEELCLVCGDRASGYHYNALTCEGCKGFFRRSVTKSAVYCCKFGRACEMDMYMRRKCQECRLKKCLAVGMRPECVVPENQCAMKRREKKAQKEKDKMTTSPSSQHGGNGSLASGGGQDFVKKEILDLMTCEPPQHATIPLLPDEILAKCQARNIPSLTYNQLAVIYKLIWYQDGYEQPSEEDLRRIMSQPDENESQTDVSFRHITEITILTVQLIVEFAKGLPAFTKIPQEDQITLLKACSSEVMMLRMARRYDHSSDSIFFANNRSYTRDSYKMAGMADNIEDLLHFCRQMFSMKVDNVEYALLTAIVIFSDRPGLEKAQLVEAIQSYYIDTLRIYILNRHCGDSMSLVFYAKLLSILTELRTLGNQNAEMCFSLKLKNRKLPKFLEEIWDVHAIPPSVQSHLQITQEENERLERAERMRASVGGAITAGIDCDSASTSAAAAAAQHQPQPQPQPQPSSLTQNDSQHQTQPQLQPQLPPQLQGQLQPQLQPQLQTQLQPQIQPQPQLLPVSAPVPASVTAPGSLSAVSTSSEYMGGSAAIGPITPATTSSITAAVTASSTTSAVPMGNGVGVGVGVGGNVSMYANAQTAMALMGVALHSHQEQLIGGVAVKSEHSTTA
T1 sequence (P28700 206-467 partner limits assumed): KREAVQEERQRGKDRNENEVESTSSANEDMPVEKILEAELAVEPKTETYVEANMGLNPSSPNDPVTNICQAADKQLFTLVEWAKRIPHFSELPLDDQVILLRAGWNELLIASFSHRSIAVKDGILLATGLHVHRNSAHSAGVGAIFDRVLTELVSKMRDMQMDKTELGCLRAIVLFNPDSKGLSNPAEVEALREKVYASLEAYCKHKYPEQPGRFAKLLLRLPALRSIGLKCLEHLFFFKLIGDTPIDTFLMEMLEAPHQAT
Nature of the test: Transactivation of reporter gene through switch 1.4 in CV1 cells. Format: cell-based, Mus musculus; Drosophila melanogaster. Set-up: expressed in transfected cells; host or cells: CV1 cells. The conditions noted are these: switch 1.4, pGAL4RELuc. As for the experimental part: This construct was prepared in the same way as switch 1.3 except CfEcRCDEF was replaced with DmEcRCDEF (SEQ ID NO: 6).
as §1, §2, §3, §4

For another test, the system named is CfVgRXR + MmRXR. Nature of the test: Transactivation of reporter gene through switch 1.9 in 3T3 cells. Format: cell-based, Choristoneura fumiferana; Mus musculus. The conditions noted are these: switch 1.9, pIND(SP1)LacZ. Here is the method: This example was prepared in the same way as switch 1.8 except DmEcR was replaced with a truncated CfEcR comprising a partial A/B domain and the complete CDEF domains [SEQ ID NO: 70 (polynucleotide) and SEQ ID NO: 71 (polypeptide)].
as §1, §2, §4

DmVgRXR + MmRXR, sequence (P28700 whole entry, the tested form may be a part): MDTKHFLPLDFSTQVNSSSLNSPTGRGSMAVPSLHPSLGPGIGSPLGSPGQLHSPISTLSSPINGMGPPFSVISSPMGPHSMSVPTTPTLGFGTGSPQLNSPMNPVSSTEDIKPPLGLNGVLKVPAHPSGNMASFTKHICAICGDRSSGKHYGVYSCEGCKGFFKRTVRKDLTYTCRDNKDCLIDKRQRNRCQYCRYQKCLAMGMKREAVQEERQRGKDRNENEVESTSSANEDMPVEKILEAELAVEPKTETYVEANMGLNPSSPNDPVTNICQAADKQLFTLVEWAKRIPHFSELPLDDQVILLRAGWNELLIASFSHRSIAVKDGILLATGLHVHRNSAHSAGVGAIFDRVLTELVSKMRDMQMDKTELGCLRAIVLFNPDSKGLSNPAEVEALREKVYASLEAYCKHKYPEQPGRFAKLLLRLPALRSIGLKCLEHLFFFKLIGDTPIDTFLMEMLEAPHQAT
DmVgRXR + MmRXR, sequence (P34021 whole entry E282G/G283S/G286V, the tested form may be a part): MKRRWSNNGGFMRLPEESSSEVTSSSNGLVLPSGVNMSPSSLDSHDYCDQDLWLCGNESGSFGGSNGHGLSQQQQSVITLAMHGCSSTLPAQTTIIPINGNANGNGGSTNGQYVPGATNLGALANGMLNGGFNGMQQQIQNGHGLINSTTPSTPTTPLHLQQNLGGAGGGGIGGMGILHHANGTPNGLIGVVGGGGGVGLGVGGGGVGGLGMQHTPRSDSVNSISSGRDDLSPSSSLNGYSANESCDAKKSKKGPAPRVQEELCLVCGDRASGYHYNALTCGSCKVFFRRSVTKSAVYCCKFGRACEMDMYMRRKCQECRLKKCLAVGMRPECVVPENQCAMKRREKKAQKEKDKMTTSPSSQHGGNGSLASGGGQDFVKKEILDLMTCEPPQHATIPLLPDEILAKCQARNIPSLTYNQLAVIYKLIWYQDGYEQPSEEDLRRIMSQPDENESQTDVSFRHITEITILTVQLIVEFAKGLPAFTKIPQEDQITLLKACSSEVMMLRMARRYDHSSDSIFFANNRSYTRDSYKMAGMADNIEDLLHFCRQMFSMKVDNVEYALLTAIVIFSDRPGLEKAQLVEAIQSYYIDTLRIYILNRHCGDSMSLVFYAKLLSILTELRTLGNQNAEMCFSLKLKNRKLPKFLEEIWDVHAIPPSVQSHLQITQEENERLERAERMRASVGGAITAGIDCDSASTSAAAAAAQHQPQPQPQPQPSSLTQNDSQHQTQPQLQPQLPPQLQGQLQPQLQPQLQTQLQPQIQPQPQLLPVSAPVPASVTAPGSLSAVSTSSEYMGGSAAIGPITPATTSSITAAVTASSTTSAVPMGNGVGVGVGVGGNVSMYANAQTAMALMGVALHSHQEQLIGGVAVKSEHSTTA

As to `CCc1c(OC)cccc1C(=O)NN(C(=O)c1cc(C)cc(C)c1)C(C)(C)C` [N-(2-ethyl-3-methoxybenzoyl)-N′-(3,5-dimethylbenzoyl)-N′-t-butylhydrazine], the “Mean Fold Activation Through N-(2-ethyl-3-methoxybenzoyl)-N′-(3,5-dimethylbenzoyl)-N′-t-butylhydrazine” value is 12 fold on DmVgRXR + MmRXR, 80 fold on GAL4RXR + VP16DmEcR and 19 fold in the test with CfVgRXR + MmRXR.
